Source: patent US20220281848A1, “PYRAZOLE-SUBSTITUTED PYRROLIDINONES AS HERBICIDES” (FMC Corporation, priority 2019, published 2022)

Tested on: plants
Assay: Test D pre-emergence, other plants of Tables D1 and D3
Format: in vivo
Conditions: preemergent, 20 DAA
Experimental: A formulation containing 50 g/L of the test chemical was prepared by dissolving the active ingredient in a mixture of organic solvents and emulsifier, details of which are provided in the table. This formulation was then mixed with a small, variable amount of acetone to aid dissolution, before addition of a 0.2% v/v aqueous solution of an adjuvant, as the aqueous diluent, to form an aqueous spray solution which contains a predetermined concentration of the active ingredient.
This aqueous spray solution was then sprayed onto plants including maize and wheat that had been seed treated with a herbicide safener, after one day's cultivation (for pre-emergence) or after about 12 days' cultivation (for post-emergence). The plants were grown from seeds sown in standard soil, placed in a glasshouse under controlled conditions (at 24/18° C. or 20/16° C., day/night; 16 h light; 65% humidity). After spray application the plants were then grown in a glasshouse under the same conditions and watered twice daily. After 15 d for post-emergence and 20 DAA for pre-emergence the test was evaluated (100=total damage to plant; 0=no damage to plant).

## CN1CC(c2cc(C(F)(F)F)n(C)n2)C(C(=O)Nc2cccc(F)c2F)C1=O (racemic) [Compound 3]
Rate 15
  damage to plant (100=total damage to plant; 0=no damage to plant), ABUTH: 0
  damage to plant (100=total damage to plant; 0=no damage to plant), BIDPI: 0
  damage to plant (100=total damage to plant; 0=no damage to plant), BRAPL: 20
  damage to plant (100=total damage to plant; 0=no damage to plant), CYPES: 0
  damage to plant (100=total damage to plant; 0=no damage to plant), DIGSA: 20
  damage to plant (100=total damage to plant; 0=no damage to plant), ECHCG: 20
  damage to plant (100=total damage to plant; 0=no damage to plant), ELEIN: 0
  damage to plant (100=total damage to plant; 0=no damage to plant), EPHHL: 0
  damage to plant (100=total damage to plant; 0=no damage to plant), GLXMA: 0
  damage to plant (100=total damage to plant; 0=no damage to plant), IPOHE: 0
  damage to plant (100=total damage to plant; 0=no damage to plant), ORYSA: 0
  damage to plant (100=total damage to plant; 0=no damage to plant), PANMI: 0
  damage to plant (100=total damage to plant; 0=no damage to plant), SETFA: 0
  damage to plant (100=total damage to plant; 0=no damage to plant), SIDSP: 0
  damage to plant (100=total damage to plant; 0=no damage to plant), SORVU: 0
Rate 30
  damage to plant (100=total damage to plant; 0=no damage to plant), ABUTH: 0
  damage to plant (100=total damage to plant; 0=no damage to plant), BIDPI: 0
  damage to plant (100=total damage to plant; 0=no damage to plant), BRAPL: 50
  damage to plant (100=total damage to plant; 0=no damage to plant), CYPES: 0
  damage to plant (100=total damage to plant; 0=no damage to plant), DIGSA: 90
  damage to plant (100=total damage to plant; 0=no damage to plant), ECHCG: 90
  damage to plant (100=total damage to plant; 0=no damage to plant), ELEIN: 0
  damage to plant (100=total damage to plant; 0=no damage to plant), EPHHL: 0
  damage to plant (100=total damage to plant; 0=no damage to plant), GLXMA: 0
  damage to plant (100=total damage to plant; 0=no damage to plant), IPOHE: 0
  damage to plant (100=total damage to plant; 0=no damage to plant), ORYSA: 0
  damage to plant (100=total damage to plant; 0=no damage to plant), PANMI: 0
  damage to plant (100=total damage to plant; 0=no damage to plant), SETFA: 30
  damage to plant (100=total damage to plant; 0=no damage to plant), SIDSP: 0
  damage to plant (100=total damage to plant; 0=no damage to plant), SORVU: 0
Rate 60
  damage to plant (100=total damage to plant; 0=no damage to plant), ABUTH: 0
  damage to plant (100=total damage to plant; 0=no damage to plant), BIDPI: 0
  damage to plant (100=total damage to plant; 0=no damage to plant), BRAPL: 90
  damage to plant (100=total damage to plant; 0=no damage to plant), CYPES: 0
  damage to plant (100=total damage to plant; 0=no damage to plant), DIGSA: 90
  damage to plant (100=total damage to plant; 0=no damage to plant), ECHCG: 90
  damage to plant (100=total damage to plant; 0=no damage to plant), ELEIN: 0
  damage to plant (100=total damage to plant; 0=no damage to plant), EPHHL: 0
  damage to plant (100=total damage to plant; 0=no damage to plant), GLXMA: 0
  damage to plant (100=total damage to plant; 0=no damage to plant), IPOHE: 0
  damage to plant (100=total damage to plant; 0=no damage to plant), ORYSA: 0
  damage to plant (100=total damage to plant; 0=no damage to plant), PANMI: 0
  damage to plant (100=total damage to plant; 0=no damage to plant), SETFA: 80
  damage to plant (100=total damage to plant; 0=no damage to plant), SORVU: 0
Rate 130
  damage to plant (100=total damage to plant; 0=no damage to plant), ABUTH: 0
  damage to plant (100=total damage to plant; 0=no damage to plant), BIDPI: 0
  damage to plant (100=total damage to plant; 0=no damage to plant), BRAPL: 100
  damage to plant (100=total damage to plant; 0=no damage to plant), CYPES: 0
  damage to plant (100=total damage to plant; 0=no damage to plant), DIGSA: 100
  damage to plant (100=total damage to plant; 0=no damage to plant), ECHCG: 90
  damage to plant (100=total damage to plant; 0=no damage to plant), ELEIN: 0
  damage to plant (100=total damage to plant; 0=no damage to plant), EPHHL: 0
  damage to plant (100=total damage to plant; 0=no damage to plant), GLXMA: 0
  damage to plant (100=total damage to plant; 0=no damage to plant), IPOHE: 0
  damage to plant (100=total damage to plant; 0=no damage to plant), ORYSA: 0
  damage to plant (100=total damage to plant; 0=no damage to plant), PANMI: 0
  damage to plant (100=total damage to plant; 0=no damage to plant), SETFA: 90
  damage to plant (100=total damage to plant; 0=no damage to plant), SIDSP: 0
  damage to plant (100=total damage to plant; 0=no damage to plant), SORVU: 0
Rate 250
  damage to plant (100=total damage to plant; 0=no damage to plant), ABUTH: 0
  damage to plant (100=total damage to plant; 0=no damage to plant), BIDPI: 0
  damage to plant (100=total damage to plant; 0=no damage to plant), BRAPL: 100
  damage to plant (100=total damage to plant; 0=no damage to plant), CYPES: 0
  damage to plant (100=total damage to plant; 0=no damage to plant), DIGSA: 100
  damage to plant (100=total damage to plant; 0=no damage to plant), ECHCG: 100
  damage to plant (100=total damage to plant; 0=no damage to plant), ELEIN: 0
  damage to plant (100=total damage to plant; 0=no damage to plant), EPHHL: 10
  damage to plant (100=total damage to plant; 0=no damage to plant), GLXMA: 0
  damage to plant (100=total damage to plant; 0=no damage to plant), IPOHE: 0
  damage to plant (100=total damage to plant; 0=no damage to plant), ORYSA: 0
  damage to plant (100=total damage to plant; 0=no damage to plant), PANMI: 0
  damage to plant (100=total damage to plant; 0=no damage to plant), SETFA: 90
  damage to plant (100=total damage to plant; 0=no damage to plant), SIDSP: 60
  damage to plant (100=total damage to plant; 0=no damage to plant), SORVU: 0
Rate 500
  damage to plant (100=total damage to plant; 0=no damage to plant), ABUTH: 0
  damage to plant (100=total damage to plant; 0=no damage to plant), BIDPI: 0
  damage to plant (100=total damage to plant; 0=no damage to plant), BRAPL: 100
  damage to plant (100=total damage to plant; 0=no damage to plant), CYPES: 10
  damage to plant (100=total damage to plant; 0=no damage to plant), DIGSA: 100
  damage to plant (100=total damage to plant; 0=no damage to plant), ECHCG: 100
  damage to plant (100=total damage to plant; 0=no damage to plant), ELEIN: 0
  damage to plant (100=total damage to plant; 0=no damage to plant), EPHHL: 10
  damage to plant (100=total damage to plant; 0=no damage to plant), GLXMA: 10
  damage to plant (100=total damage to plant; 0=no damage to plant), IPOHE: 0
  damage to plant (100=total damage to plant; 0=no damage to plant), ORYSA: 0
  damage to plant (100=total damage to plant; 0=no damage to plant), PANMI: 0
  damage to plant (100=total damage to plant; 0=no damage to plant), SETFA: 90
  damage to plant (100=total damage to plant; 0=no damage to plant), SIDSP: 60
  damage to plant (100=total damage to plant; 0=no damage to plant), SORVU: 0
